# Experiments:
# 8305C = assay: cells; type: functional, cell-based, Homo sapiens; details: Homo sapiens, 8305C
# Description: SANGER: Inhibition of human 8305C cell growth in a cell viability assay.
# SW948 = assay: cells; type: functional, cell-based, Homo sapiens; details: Homo sapiens, SW948;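 note: growth inhibition of SW948 cells, read out with a cell viability assay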
# Description: SANGER: Inhibition of human SW948 cell growth in a cell viability assay.
# HSC-4 = assay: cells; type: functional, cell-based, Homo sapiens; details: Homo sapiens, HSC-4;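 note: growth inhibition of human HSC-4 cells, read out with a cell viability assay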
# Description: SANGER: Inhibition of human HSC-4 cell growth in a cell viability assay.
# EFO-27 = assay: cells; type: functional, cell-based, Homo sapiens; details: Homo sapiens, EFO-27;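 note: growth inhibition of EFO-27 cells, read out with a cell viability assay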
# Description: SANGER: Inhibition of human EFO-27 cell growth in a cell viability assay.
# TCC-SUP = assay: cells; type: functional, cell-based, Homo sapiens; details: Homo sapiens, TCC-SUP;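 note: growth inhibition of TCC-SUP cells, read out with a cell viability assay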
# Description: SANGER: Inhibition of human TCCSUP cell growth in a cell viability assay.
# IGROV-1 = assay: cells; type: functional, cell-based, Homo sapiens; details: Homo sapiens, IGROV-1;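 note: reduction of IGROV-1 cell growth, read out with a viability assay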
# Description: SANGER: Inhibition of human IGROV-1 cell growth in a cell viability assay.
# DMS-53 = assay: cells; type: functional, cell-based, Homo sapiens; details: Homo sapiens, DMS-53;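 note: cell viability assay measuring growth inhibition of human DMS-53 cells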
# Description: SANGER: Inhibition of human DMS-53 cell growth in a cell viability assay.
# Calu-1 = assay: SANGER: Inhibition of human Calu-1 cell growth in a cell viability assay.; type: functional, cell-based; details: Homo sapiens, Calu-1
# Huh-7 = assay: cells; type: functional, cell-based, Homo sapiens; details: Homo sapiens, Huh-7;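 note: HuH-7 cell growth inhibition, read out with a cell viability assay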
# Description: SANGER: Inhibition of human HuH-7 cell growth in a cell viability assay.
# EFE-184 = assay: cells; type: functional, cell-based, Homo sapiens; details: Homo sapiens, EFE-184
# Description: SANGER: Inhibition of human EFE-184 cell growth in a cell viability assay.
# OVCAR-5 = assay: cells; type: functional, cell-based, Homo sapiens; details: Homo sapiens, OVCAR-5;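 note: growth inhibition of human OVCAR-5 cells, read out with a cell viability assay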
# Description: SANGER: Inhibition of human OVCAR-5 cell growth in a cell viability assay.
# U-251 = assay: cells; type: functional, cell-based, Homo sapiens; details: Homo sapiens, U-251;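 note: growth inhibition of human U-251 cells, read out through a cell viability assay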
# Description: SANGER: Inhibition of human U251 cell growth in a cell viability assay.
# KP-4 = assay: cells; type: functional, cell-based, Homo sapiens; details: Homo sapiens, KP-4;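 note: human KP-4 cells, with growth inhibition read out through a cell viability assay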
# Description: SANGER: Inhibition of human KP-4 cell growth in a cell viability assay.
# MDA-MB-468 = assay: cells; type: functional, cell-based, Homo sapiens; details: Homo sapiens, MDA-MB-468
# Description: SANGER: Inhibition of human MDA-MB-468 cell growth in a cell viability assay.
# NCI-H345 = assay: cells; type: functional, cell-based, Homo sapiens; details: Homo sapiens, NCI-H345;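 note: growth inhibition of NCI-H345 cells measured with a cell viability assay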
# Description: SANGER: Inhibition of human NCI-H345 cell growth in a cell viability assay.
# FTC-133 = assay: cells; type: functional, cell-based, Homo sapiens; details: Homo sapiens, FTC-133
# BFTC-909 = assay: cells; type: functional, cell-based, Homo sapiens; details: Homo sapiens, BFTC-909
# Description: SANGER: Inhibition of human BFTC-909 cell growth in a cell viability assay.
# ECC4 = assay: cells; type: functional, cell-based, Homo sapiens; details: Homo sapiens, ECC4;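 note: growth inhibition of ECC4 cells, read out with a cell viability assay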
# Description: SANGER: Inhibition of human ECC4 cell growth in a cell viability assay.
# BOKU = assay: cells; type: functional, cell-based, Homo sapiens; details: Homo sapiens, BOKU;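 note: growth inhibition of the human BOKU cell line, read out by a cell viability assay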
# Description: SANGER: Inhibition of human BOKU cell growth in a cell viability assay.
# Detroit 562 = assay: cells; type: functional, cell-based, Homo sapiens; details: Homo sapiens, Detroit 562;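 note: growth inhibition of human Detroit 562 cells, read out by a cell viability assay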
# Description: SANGER: Inhibition of human Detroit562 cell growth in a cell viability assay.
# NCI-H2347 = assay: cells; type: functional, cell-based, Homo sapiens; details: Homo sapiens, NCI-H2347;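 note: growth inhibition of the cell line, read out with a cell viability assay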
# Description: SANGER: Inhibition of human NCI-H2347 cell growth in a cell viability assay.
# ACHN = assay: cells; type: functional, cell-based, Homo sapiens; details: Homo sapiens, ACHN;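 note: cell viability read-out used to gauge how strongly growth of human ACHN cells is suppressed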
# Description: SANGER: Inhibition of human ACHN cell growth in a cell viability assay.
# PLC-PRF-5 = assay: cells; type: functional, cell-based, Homo sapiens; details: Homo sapiens, PLC-PRF-5;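 note: growth inhibition of human PLC-PRF-5 cells, read out with a viability assay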
# Description: SANGER: Inhibition of human PLC-PRF-5 cell growth in a cell viability assay.
# IPC-298 = assay: SANGER: Inhibition of human IPC-298 cell growth in a cell viability assay.; type: functional, cell-based; details: Homo sapiens, IPC-298
# Caov-3 cell line = assay: cells; type: functional, cell-based, Homo sapiens; details: Homo sapiens, Caov-3;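 note: cell growth inhibition read out by a viability assay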
# Description: SANGER: Inhibition of human Caov-3 cell growth in a cell viability assay.
# ST486 = assay: SANGER: Inhibition of human ST486 cell growth in a cell viability assay.; type: functional, cell-based; details: Homo sapiens, ST486
# COLO 205 = assay: cells; type: functional, cell-based, Homo sapiens; details: Homo sapiens, COLO 205
# Description: SANGER: Inhibition of human COLO-205 cell growth in a cell viability assay.
# RPMI-6666 = assay: cells; type: functional, cell-based, Homo sapiens; details: Homo sapiens, RPMI-6666
# Description: SANGER: Inhibition of human RPMI-6666 cell growth in a cell viability assay.
# CAPAN-1 = assay: cells; type: functional, cell-based, Homo sapiens; details: Homo sapiens, CAPAN-1;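 note: growth suppression of CAPAN-1 cells, read out by a cell viability assay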
# Description: SANGER: Inhibition of human CAPAN-1 cell growth in a cell viability assay.
# L-540 = assay: cells; type: functional, cell-based, Homo sapiens; details: Homo sapiens, L-540;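 note: growth inhibition of the human L-540 cell line, read out with a viability assay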
# Description: SANGER: Inhibition of human L-540 cell growth in a cell viability assay.
# HCC1395 = assay: cells; type: functional, cell-based, Homo sapiens; details: Homo sapiens, HCC1395;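 note: growth inhibition of HCC1395 cells, read out by a cell viability assay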
# Description: SANGER: Inhibition of human HCC1395 cell growth in a cell viability assay.
# LC-1F = assay: cells; type: functional, cell-based, Homo sapiens; details: Homo sapiens, LC-1F;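 note: growth inhibition of human LC-1F cells, read out with a cell viability assay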
# Description: SANGER: Inhibition of human LC-1F cell growth in a cell viability assay.
# SCC-9 = assay: cells; type: functional, cell-based, Homo sapiens; details: Homo sapiens, SCC-9;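 note: Read-out is a cell viability assay, with values giving inhibition of cell growth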
# Description: SANGER: Inhibition of human SCC-9 cell growth in a cell viability assay.
# GCT = assay: cells; type: functional, cell-based, Homo sapiens; details: Homo sapiens, GCT;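 note: GCT cell line proliferation inhibition, read out with a cell viability assay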
# Description: SANGER: Inhibition of human GCT cell growth in a cell viability assay.
# NCI-H838 = assay: cells; type: functional, cell-based, Homo sapiens; details: Homo sapiens, NCI-H838;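 note: growth inhibition of human NCI-H838 cells, read out by a cell viability assay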
# Description: SANGER: Inhibition of human NCI-H838 cell growth in a cell viability assay.
# UACC-62 = assay: cells; type: functional, cell-based, Homo sapiens; details: Homo sapiens, UACC-62;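 note: growth inhibition of human UACC-62 cells, read out by a cell viability assay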
# Description: SANGER: Inhibition of human UACC-62 cell growth in a cell viability assay.
# COLO-678 = assay: cells; type: functional, cell-based, Homo sapiens; details: Homo sapiens, COLO-678
# Description: SANGER: Inhibition of human COLO-678 cell growth in a cell viability assay.
# CCF-STTG1 = assay: cells; type: functional, cell-based, Homo sapiens; details: Homo sapiens, CCF-STTG1;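 note: growth inhibition of human CCF-STTG1 cells, determined with a cell viability read-out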
# Description: SANGER: Inhibition of human CCF-STTG1 cell growth in a cell viability assay.
# HCC1143 = assay: cells; type: functional, cell-based, Homo sapiens; details: Homo sapiens, HCC1143;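 note: growth inhibition of human HCC1143 cells, read out with a cell viability assay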
# Description: SANGER: Inhibition of human HCC1143 cell growth in a cell viability assay.
# MEL-JUSO = assay: cells; type: functional, cell-based, Homo sapiens; details: Homo sapiens, MEL-JUSO;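 note: growth inhibition of human MEL-JUSO cells, read out with a cell viability assay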
# Description: SANGER: Inhibition of human MEL-JUSO cell growth in a cell viability assay.
# SNU-423 = assay: cells; type: functional, cell-based, Homo sapiens; details: Homo sapiens, SNU-423
# Description: SANGER: Inhibition of human SNU-423 cell growth in a cell viability assay.
# MFE-296 = assay: SANGER: Inhibition of human MFE-296 cell growth in a cell viability assay.; type: functional, cell-based; details: Homo sapiens, MFE-296
# KU-19-19 = assay: cells; type: functional, cell-based, Homo sapiens; details: Homo sapiens, KU-19-19
# Description: SANGER: Inhibition of human KU-19-19 cell growth in a cell viability assay.
smiles,measurement,setting,value
CCC/C=C/C=C/C(=O)O[C@H]1/C(=C/C(=O)OC)C[C@H]2C[C@H]([C@@H](C)O)OC(=O)C[C@H](O)C[C@@H]3C[C@H](OC(C)=O)C(C)(C)[C@](O)(C[C@@H]4C/C(=C/C(=O)OC)C[C@H](/C=C/C(C)(C)[C@]1(O)O2)O4)O3 [BRYOSTATIN 1],IC50,8305C,> 8 nM
same,IC50,SW948,> 8 nM
same,IC50,HSC-4,> 8 nM
same,IC50,EFO-27,> 8 nM
same,IC50,TCC-SUP,> 8 nM
same,IC50,IGROV-1,> 8 nM
same,IC50,DMS-53,> 8 nM
same,IC50,Calu-1,> 8 nM
same,IC50,Huh-7,> 8 nM
same,IC50,EFE-184,> 8 nM
same,IC50,OVCAR-5,> 8 nM
same,IC50,U-251,> 8 nM
same,IC50,KP-4,> 8 nM
same,IC50,MDA-MB-468,> 8 nM
same,IC50,NCI-H345,> 8 nM
same,IC50,FTC-133,> 8 nM
same,IC50,BFTC-909,> 8 nM
same,IC50,ECC4,> 8 nM
same,IC50,BOKU,> 8 nM
same,IC50,Detroit 562,> 8 nM
same,IC50,NCI-H2347,> 8 nM
same,IC50,ACHN,> 8 nM
same,IC50,PLC-PRF-5,> 8 nM
same,IC50,IPC-298,> 8 nM
same,IC50,Caov-3 cell line,> 8 nM
same,IC50,ST486,> 8 nM
same,IC50,COLO 205,> 8 nM
same,IC50,RPMI-6666,> 8 nM
same,IC50,CAPAN-1,> 8 nM
same,IC50,L-540,> 8 nM
same,IC50,HCC1395,> 8 nM
same,IC50,LC-1F,> 8 nM
same,IC50,SCC-9,> 8 nM
same,IC50,GCT,> 8 nM
same,IC50,NCI-H838,> 8 nM
same,IC50,UACC-62,> 8 nM
same,IC50,COLO-678,> 8 nM
same,IC50,CCF-STTG1,> 8 nM
same,IC50,HCC1143,> 8 nM
same,IC50,MEL-JUSO,> 8 nM
same,IC50,SNU-423,> 8 nM
same,IC50,MFE-296,> 8 nM
same,IC50,KU-19-19,> 8 nM
Nc1ccn([C@@H]2O[C@H](CO)[C@@H](O)C2(F)F)c(=O)n1 [GEMCITABINE],IC50,8305C,9.64 nM
same,IC50,SW948,> 1020 nM
same,IC50,HSC-4,< 4 nM
same,IC50,EFO-27,9.05 nM
same,IC50,TCC-SUP,> 1020 nM
same,IC50,IGROV-1,< 4 nM
same,IC50,DMS-53,> 1020 nM
same,IC50,Calu-1,220 nM
same,IC50,Huh-7,569 nM
same,IC50,EFE-184,> 1020 nM
same,IC50,OVCAR-5,306 nM
same,IC50,U-251,22.3 nM
same,IC50,MDA-MB-468,14.1 nM
same,IC50,NCI-H345,> 1020 nM
same,IC50,FTC-133,87.5 nM
same,IC50,BFTC-909,146 nM
same,IC50,ECC4,> 1020 nM
same,IC50,BOKU,254 nM
same,IC50,Detroit 562,10.4 nM
same,IC50,NCI-H2347,792 nM
same,IC50,ACHN,< 4 nM
same,IC50,PLC-PRF-5,> 1020 nM
same,IC50,IPC-298,255 nM
same,IC50,Caov-3 cell line,54.1 nM
same,IC50,ST486,9.41 nM
same,IC50,COLO 205,> 1020 nM
same,IC50,RPMI-6666,< 4 nM
same,IC50,CAPAN-1,9.23 nM
same,IC50,L-540,1.6 nM
same,IC50,HCC1395,> 1020 nM
same,IC50,LC-1F,> 1020 nM
same,IC50,SCC-9,> 1020 nM
same,IC50,GCT,405 nM
same,IC50,NCI-H838,499 nM
same,IC50,UACC-62,813 nM
same,IC50,COLO-678,> 1020 nM
same,IC50,CCF-STTG1,31.4 nM
same,IC50,HCC1143,> 1020 nM
same,IC50,MEL-JUSO,< 4 nM
same,IC50,SNU-423,62.5 nM
same,IC50,MFE-296,51.4 nM
same,IC50,KU-19-19,> 1020 nM
C=C(c1ccc(C(=O)O)cc1)c1cc2c(cc1C)C(C)(C)CCC2(C)C [BEXAROTENE],IC50,8305C,> 8000 nM
same,IC50,SW948,> 8000 nM
same,IC50,HSC-4,> 8000 nM
same,IC50,EFO-27,> 8000 nM
same,IC50,TCC-SUP,> 8000 nM
same,IC50,IGROV-1,> 8000 nM
same,IC50,DMS-53,> 8000 nM
same,IC50,Calu-1,> 8000 nM
same,IC50,Huh-7,> 8000 nM
same,IC50,EFE-184,> 8000 nM
same,IC50,OVCAR-5,> 8000 nM
same,IC50,U-251,> 8000 nM
same,IC50,MDA-MB-468,> 8000 nM
same,IC50,NCI-H345,> 8000 nM
same,IC50,FTC-133,> 8000 nM
same,IC50,BFTC-909,> 8000 nM
same,IC50,ECC4,> 8000 nM
same,IC50,BOKU,> 8000 nM
same,IC50,Detroit 562,> 8000 nM
same,IC50,NCI-H2347,> 8000 nM
same,IC50,ACHN,> 8000 nM
same,IC50,PLC-PRF-5,> 8000 nM
same,IC50,IPC-298,> 8000 nM
same,IC50,Caov-3 cell line,> 8000 nM
same,IC50,ST486,> 8000 nM
same,IC50,COLO 205,> 8000 nM
same,IC50,RPMI-6666,> 8000 nM
same,IC50,CAPAN-1,> 8000 nM
same,IC50,L-540,> 8000 nM
same,IC50,HCC1395,> 8000 nM
same,IC50,LC-1F,> 8000 nM
same,IC50,SCC-9,> 8000 nM
same,IC50,GCT,> 8000 nM
same,IC50,NCI-H838,> 8000 nM
same,IC50,UACC-62,> 8000 nM
same,IC50,COLO-678,> 8000 nM
same,IC50,CCF-STTG1,> 8000 nM
same,IC50,HCC1143,> 8000 nM
same,IC50,MEL-JUSO,> 8000 nM
same,IC50,SNU-423,> 8000 nM
same,IC50,MFE-296,> 8000 nM
same,IC50,KU-19-19,> 8000 nM
